Values of other authors, collected in patent US20090048334A1, “Sodium ascorbate solubilisate” (priority 2004, published 2009).

Conditions: for content of the agent in an aqueous solution: over an extended period of time

Compound | added ascorbic acid present (aqueous ascorbic acid solution, after 30 days) | content of the agent in an aqueous solution
O=C1O[C@H]([C@@H](O)CO)C(O)=C1O [ascorbic acid] | approximately 70% | 
CCCCCCCCCCCCCCCC(=O)OC[C@H](O)[C@H]1OC(=O)C(O)=C1O [ascorbylpalmitate] |  | remains constant
O=C1O[C@H]([C@@H](O)CO)C([O-])=C1OP(=O)([O-])[O-].[Na+].[Na+].[Na+] [sodium ascorbic phosphate] |  | remains constant
